# Experiments:
# PIM2 = PIM2 (Homo sapiens, UniProt Q9P1W9); experiment: Pim 2 AlphaScreen assay (high ATP); assay type: biochemical; conditions: read-out: Pim2 IC50
# How it was run: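 This is a bead-based AlphaScreen run at high ATP (11-125× Km) with biotin-Bad peptide (100 nM in the substrate mix), in 50 mM Hepes pH 7.5, 5 mM MgCl2, 0.05% BSA, 0.01% Tween-20, 1 mM DTT and 2.5% DMSO final. After ~2 h the reaction was stopped with EDTA. Phospho-peptide was detected overnight with anti-phospho Ser/Thr antibody on Protein A and streptavidin beads, giving IC50.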
# [1] = test system: KMS11 (human myeloma cell line); experiment: Cell proliferation assay (CellTiter-Glo), KMS11; assay type: cell-based; conditions: Homo sapiens, KMS-11; KMS11 cells, cell proliferation; read-out: KMS11-Luc EC50
# How it was run: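 KMS11 cells in IMDM with 10% FBS and sodium pyruvate, seeded at 2000 cells/well on assay day. Compound added at 2× to equal volume of cells, incubated 3 days at 37° C. Viability read by CellTiter-Glo luminescence; EC50 derived.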
# PDGFRaV561D kinase = PDGFRaV561D kinase (Homo sapiens, UniProt P16234, V561D); experiment: PDGFRaV561D kinase inhibition assay (LanthaScreen TR-FRET); assay type: biochemical; conditions: read-out: PDGFRa IC50
# Chain of PDGFRaV561D kinase (P16234 24-1089 V561D): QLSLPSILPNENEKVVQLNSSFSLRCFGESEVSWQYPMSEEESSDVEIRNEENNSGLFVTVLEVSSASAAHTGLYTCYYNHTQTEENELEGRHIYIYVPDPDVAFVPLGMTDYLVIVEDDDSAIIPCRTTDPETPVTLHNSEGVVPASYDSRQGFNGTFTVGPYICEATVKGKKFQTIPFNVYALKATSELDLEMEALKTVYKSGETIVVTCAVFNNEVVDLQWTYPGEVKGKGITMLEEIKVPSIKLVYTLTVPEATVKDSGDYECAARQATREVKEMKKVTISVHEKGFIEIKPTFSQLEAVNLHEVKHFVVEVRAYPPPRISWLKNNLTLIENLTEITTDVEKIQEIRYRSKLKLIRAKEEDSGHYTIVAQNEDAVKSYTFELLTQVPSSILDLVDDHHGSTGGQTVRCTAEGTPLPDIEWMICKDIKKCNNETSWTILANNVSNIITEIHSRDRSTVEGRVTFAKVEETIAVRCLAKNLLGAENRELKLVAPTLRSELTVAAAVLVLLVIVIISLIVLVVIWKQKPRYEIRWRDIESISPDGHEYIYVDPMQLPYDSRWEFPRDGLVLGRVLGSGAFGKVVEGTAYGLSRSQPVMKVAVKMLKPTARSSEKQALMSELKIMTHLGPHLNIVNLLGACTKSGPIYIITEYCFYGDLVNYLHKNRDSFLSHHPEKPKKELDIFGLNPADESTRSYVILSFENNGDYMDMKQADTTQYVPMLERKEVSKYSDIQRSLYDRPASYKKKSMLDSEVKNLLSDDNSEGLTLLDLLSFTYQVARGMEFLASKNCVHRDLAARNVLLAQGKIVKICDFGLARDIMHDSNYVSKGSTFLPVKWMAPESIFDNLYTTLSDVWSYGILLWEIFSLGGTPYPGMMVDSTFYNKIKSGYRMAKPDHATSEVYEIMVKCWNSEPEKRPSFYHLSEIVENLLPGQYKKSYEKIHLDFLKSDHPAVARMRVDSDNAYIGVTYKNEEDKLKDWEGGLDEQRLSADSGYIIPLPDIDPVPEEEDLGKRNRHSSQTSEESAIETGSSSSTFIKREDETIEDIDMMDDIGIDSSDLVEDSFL
# Experimental: PDGFRaV561D Kinase Inhibition Assay
# LanthaScreen™ is the detection of Time-Resolved Fluorescence Resonance Energy Transfer (TR-FRET) using lanthanide chelates to measure interactions between various binding partners. The application of TR-FRET to assay kinase activity was first described by Mathis (1995). A TR-FRET assay was used to measure PDGFRaV561D kinase inhibitory activity. The assay panel was run on a Biomek FX liquid handling workstations. To the assay plates containing […] compound or control solutions, 4.5 μL of buffer A (50 mM TRIS-HCl pH 7.4, 2 mM DTT, 0.02% Tween 20, 0.02 mM Na3VO4, H2O nanpure) including a generic concentration of ATP (2 μM f.c.) was added per well, followed by […] of buffer B (4 uM ATP in Buffer A) including a generic concentration of polyEAY (50 nM f.c.), PDGFRaV561D kinase, and divalent cations. Final concentration of kinase and cations were: [PDGFRaV561D kinase]=4.4 nM, [Mn]=10 mM. After 1 hour of incubation the kinase reactions were stopped by the addition of 4.5 μL of stop solution D (50 mM EDTA, 20 mM TRIS-HCl pH 7.4, 0.04% NP-40) immediately followed by 4.5 μL of buffer A (50 mM TRIS-HCl pH 7.4, 2 mM DTT, 0.02% Tween 20, 0.02 mM Na3VO4, H2O nanpure) including the Tb-labeled P-20 antibody to give a total detection volume of […]. After an incubation time of 45 min in the dark, the plates were transferred into the Pherastar fluorescence reader for counting. The effect of compound on the enzymatic activity was obtained from the linear progress curves and determined from one reading (end point measurement).
# Chain of PIM2 (Q9P1W9 whole entry): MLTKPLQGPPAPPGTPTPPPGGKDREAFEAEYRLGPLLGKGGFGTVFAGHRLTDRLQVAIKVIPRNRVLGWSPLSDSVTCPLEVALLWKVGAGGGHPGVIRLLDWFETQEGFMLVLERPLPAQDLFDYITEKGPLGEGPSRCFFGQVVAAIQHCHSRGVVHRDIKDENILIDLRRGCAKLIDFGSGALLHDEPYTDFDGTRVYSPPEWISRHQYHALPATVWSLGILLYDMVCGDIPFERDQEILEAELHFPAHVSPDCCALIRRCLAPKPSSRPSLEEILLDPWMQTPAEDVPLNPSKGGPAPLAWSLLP
IC50 (PIM2) [nM],EC50 [1] [nM],IC50 (PDGFRaV561D kinase) [nM],SMILES
76.6,1570,23,"Nc1ncc(-c2ccccc2)nc1C(=O)Nc1cnccc1[C@H]1C[C@@H](N)[C@@]2(O)CCC[C@H]2O1 [Example 183, 3-amino-N-(4-((2R,4R,4aS,7aR)-4-amino-4a-hydroxyoctahydrocyclopenta[b]pyran-2-yl)pyridin-3-yl)-6-phenylpyrazine-2-carboxamide]"
6430,9390,4100,"Nc1ncc(-c2ccccc2)nc1C(=O)Nc1cnccc1[C@@H]1C[C@H](N)[C@]2(O)CCC[C@@H]2O1 [Example 185, 3-amino-N-(4-((2S,4S,4aR,7aS)-4-amino-4a-hydroxyoctahydrocyclopenta[b]pyran-2-yl)pyridin-3-yl)-6-phenylpyrazine-2-carboxamide]"
86.3,950,25,"CC[C@]1(O)[C@H](N)C[C@H](c2ccncc2NC(=O)c2nc(-c3ccccc3)cnc2N)O[C@@H]1C [Example 187, 3-amino-N-(4-((2R,4R,5S,6R)-4-amino-5-ethyl-5-hydroxy-6-methyltetrahydro-2H-pyran-2-yl)pyridin-3-yl)-6-phenylpyrazine-2-carboxamide]"
25000,8830,1700,"CC[C@]1(O)[C@H](C)O[C@H](c2ccncc2NC(=O)c2nc(-c3ccccc3)cnc2N)C[C@@H]1N [Example 189, 3-amino-N-(4-((2S,4S,5R,6S)-4-amino-5-ethyl-5-hydroxy-6-methyltetrahydro-2H-pyran-2-yl)pyridin-3-yl)-6-phenylpyrazine-2-carboxamide]"
89.2,70,23,"Nc1ncc(-c2ccccc2)nc1C(=O)Nc1cnccc1[C@H]1C[C@@H](N)[C@@]2(O)CCCC[C@H]2O1 [Example 197, 3-amino-N-(4-((2R,4R,4aS,8aR)-4-amino-4a-hydroxyoctahydro-2H-chromen-2-yl)pyridin-3-yl)-6-phenylpyrazine-2-carboxamide]"
102,590,14,"Nc1ncc(-c2ccccc2)nc1C(=O)Nc1cnccc1[C@H]1C[C@@H](N)[C@H]2CCC[C@H]2O1 [Example 199, 3-amino-N-(4-((2R,4R,4aR,7aR)-4-aminooctahydrocyclopenta[b]pyran-2-yl)pyridin-3-yl)-6-phenylpyrazine-2-carboxamide]"
549,5310,1300,"CC(C)(C)[C@@H]1O[C@H](c2ccncc2NC(=O)c2nc(-c3ccccc3)cnc2N)C[C@@H](N)[C@H]1O [Example 227, 3-amino-N-(4-((2S,4R,5R,6S)-4-amino-6-tert-butyl-5-hydroxytetrahydro-2H-pyran-2-yl)pyridin-3-yl)-6-phenylpyrazine-2-carboxamide]"
120,2060,37,"C[C@H]1O[C@@H](c2ccncc2NC(=O)c2nc(-c3ccccc3)cnc2N)C[C@@H](N)[C@]1(C)O [Example 228, 3-amino-N-(4-((2R,4R,5S,6R)-4-amino-5-hydroxy-5,6-dimethyltetrahydro-2H-pyran-2-yl)pyridin-3-yl)-6-phenylpyrazine-2-carboxamide]"
3310,5870,1000,"C[C@@H]1O[C@H](c2ccncc2NC(=O)c2nc(-c3ccccc3)cnc2N)C[C@H](N)[C@@]1(C)O [Example 229, 3-amino-N-(4-((2S,4S,5R,6S)-4-amino-5-hydroxy-5,6-dimethyltetrahydro-2H-pyran-2-yl)pyridin-3-yl)-6-phenylpyrazine-2-carboxamide]"
5140,100,940,"Nc1ncc(-c2ccccc2)nc1C(=O)Nc1cnccc1[C@@H]1C[C@H](N)[C@@H]2CCC[C@@H]2O1 [Example 233, 3-amino-N-(4-((2S,4S,4aS,7aS)-4-aminooctahydrocyclopenta[b]pyran-2-yl)pyridin-3-yl)-6-phenylpyrazine-2-carboxamide]"
2770,380,7300,"CC(C)[C@@H]1O[C@H](c2ccncc2NC(=O)c2nc(-c3ccccc3)cnc2N)C[C@H](N)[C@H]1O [Example 240, 3-amino-N-(4-((2S,4S,5R,6S)-4-amino-5-hydroxy-6-isopropyltetrahydro-2H-pyran-2-yl)pyridin-3-yl)-6-phenylpyrazine-2-carboxamide]"
,,8300,"Nc1ncc(-c2ccccc2)nc1C(=O)Nc1cnccc1[C@@H]1C[C@H](N)[C@]2(O)CCCC[C@@H]2O1 [Example 243, 3-amino-N-(4-((2S,4S,4aR,8aS)-4-amino-4a-hydroxyoctahydro-2H-chromen-2-yl)pyridin-3-yl)-6-phenylpyrazine-2-carboxamide]"
64.9,1970,280,"CC(C)(C)[C@H]1O[C@@H](c2ccncc2NC(=O)c2nc(-c3ccccc3)cnc2N)C[C@H](N)[C@@H]1O [Example 286, 3-amino-N-(4-((2R,4S,5S,6R)-4-amino-6-tert-butyl-5-hydroxytetrahydro-2H-pyran-2-yl)pyridin-3-yl)-6-phenylpyrazine-2-carboxamide]"
19.3,340,81,"CC(C)[C@@H]1C[C@H](N)C[C@H](c2ccncc2NC(=O)c2nc(-c3ccccc3)cnc2N)O1 [Example 291, 3-amino-N-(4-((2R,4S,6S)-4-amino-6-isopropyltetrahydro-2H-pyran-2-yl)pyridin-3-yl)-6-phenylpyrazine-2-carboxamide]"
764,700,4400,"CC(C)[C@H]1C[C@@H](N)C[C@@H](c2ccncc2NC(=O)c2nc(-c3ccccc3)cnc2N)O1 [Example 292, 3-amino-N-(4-((2S,4R,6R)-4-amino-6-isopropyltetrahydro-2H-pyran-2-yl)pyridin-3-yl)-6-phenylpyrazine-2-carboxamide]"
3650,990,810,"CCC[C@H]1O[C@@H](c2ccncc2NC(=O)c2nc(-c3ccccc3)cnc2N)C[C@@H](O)[C@@H]1O [Example 340, 3-amino-N-(4-((2R,4R,5S,6R)-4,5-dihydroxy-6-propyltetrahydro-2H-pyran-2-yl)pyridin-3-yl)-6-phenylpyrazine-2-carboxamide]"
> 25000,10000,880,"Nc1ncc(-c2ccccc2)nc1C(=O)Nc1cnccc1[C@H]1C[C@@H](O)[C@H](O)[C@@H](CO)O1 [Example 341, 3-amino-N-(4-((2R,4R,5S,6R)-4,5-dihydroxy-6-(hydroxymethyl)tetrahydro-2H-pyran-2-yl)pyridin-3-yl)-6-phenylpyrazine-2-carboxamide]"
786,,420,"C[C@@]1(O)[C@@H](N)C[C@@H](c2ccncc2NC(=O)c2nc(-c3ccccc3)cnc2N)OC12CC2 [Example 350, 3-amino-N-(4-((5S,7S,8R)-7-amino-8-hydroxy-8-methyl-4-oxaspiro[2.5]octan-5-yl)pyridin-3-yl)-6-phenylpyrazine-2-carboxamide]"
538,,18,"C[C@]1(O)[C@@H](N)C[C@H](c2ccncc2NC(=O)c2nc(-c3ccccc3)cnc2N)OC12CC2 [Example 351, 3-amino-N-(4-((5R,7S,8S)-7-amino-8-hydroxy-8-methyl-4-oxaspiro[2.5]octan-5-yl)pyridin-3-yl)-6-phenylpyrazine-2-carboxamide]"
1980,,41,"C[C@@]1(O)[C@H](N)C[C@@H](c2ccncc2NC(=O)c2nc(-c3ccccc3)cnc2N)OC12CC2 [Example 352, 3-amino-N-(4-((5S,7R,8R)-7-amino-8-hydroxy-8-methyl-4-oxaspiro[2.5]octan-5-yl)pyridin-3-yl)-6-phenylpyrazine-2-carboxamide]"
2430,,760,"C[C@]1(O)[C@H](N)C[C@H](c2ccncc2NC(=O)c2nc(-c3ccccc3)cnc2N)OC12CC2 [Example 353, 3-amino-N-(4-((5R,7R,8S)-7-amino-8-hydroxy-8-methyl-4-oxaspiro[2.5]octan-5-yl)pyridin-3-yl)-6-phenylpyrazine-2-carboxamide]"

# From patent US20130109682A1, “CYCLIC ETHER COMPOUNDS USEFUL AS KINASE INHIBITORS” (NOVARTIS AG, priority 2010, published 2013)
